According to PMC8276771 (Bioorganic & medicinal chemistry letters, 2021):
“Also recorded” adds a separate entry of the source.

What was measured:
human P2Y6R = human P2Y6R (Homo sapiens, UniProt Q15077); assay: Calcium mobilization; conditions: for fold reduction of P2Y6R potency relative to UDP 1 / P2Y6R activation (in words): calcium mobilization; for P2Y6R activation (in words): hP2Y6R
[1] = test system: 46 receptors, channels and transporters; assay: PDSP off-target panel; assay type: binding
rat CD73 = conditions: rat CD73, 5 μM AMP substrate, ref Junker et al. [33], cited from earlier work
hP2Y14R = molecular target: T1, hP2Y14R (Homo sapiens, UniProt Q15391); assay: Fluorescent antagonist binding assay by flow cytometry of hP2Y14R-CHO cells
T1 sequence (Q15391 1-338): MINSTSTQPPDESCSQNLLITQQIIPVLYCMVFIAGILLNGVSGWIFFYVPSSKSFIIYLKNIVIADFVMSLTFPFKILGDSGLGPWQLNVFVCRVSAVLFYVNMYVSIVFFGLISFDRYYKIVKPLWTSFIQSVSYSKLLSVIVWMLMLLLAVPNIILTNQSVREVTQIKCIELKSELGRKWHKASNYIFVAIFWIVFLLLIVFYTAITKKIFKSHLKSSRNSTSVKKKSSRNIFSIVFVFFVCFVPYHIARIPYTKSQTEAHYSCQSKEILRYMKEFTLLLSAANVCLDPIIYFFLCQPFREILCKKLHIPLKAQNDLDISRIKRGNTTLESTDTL

hP2YR = conditions: cited from earlier work
hP2Y6R = conditions: read-out: hP2Y6R EC50; cited from earlier work
P2Y14R = conditions: cited from earlier work

human P2Y6R, sequence (Q15077 whole entry): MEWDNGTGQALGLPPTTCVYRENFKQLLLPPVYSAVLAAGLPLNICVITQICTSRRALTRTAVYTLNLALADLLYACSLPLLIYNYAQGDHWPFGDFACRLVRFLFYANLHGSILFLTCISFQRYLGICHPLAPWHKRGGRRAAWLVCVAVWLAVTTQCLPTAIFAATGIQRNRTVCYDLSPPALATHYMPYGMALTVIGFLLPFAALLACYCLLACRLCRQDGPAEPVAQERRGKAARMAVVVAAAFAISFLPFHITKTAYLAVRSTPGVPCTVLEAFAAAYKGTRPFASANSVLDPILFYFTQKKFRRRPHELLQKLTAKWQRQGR

SMILES: CCN(CC)CC.CCN(CC)CC.CO/N=c1/ccn([C@@H]2O[C@H](COP(=O)(O)OP(=O)(O)O)[C@@H](O)[C@H]2O)c(=O)[nH]1 [Compound 11]
- fold reduction of P2Y6R potency relative to UDP 1 (human P2Y6R): 12 fold

SMILES: CCN(CC)CC.CCN(CC)CC.O=c1[nH]/c(=N/OCc2ccccc2)ccn1[C@@H]1O[C@H](COP(=O)(O)OP(=O)(O)O)[C@@H](O)[C@H]1O [Compound 13]
- fold reduction of P2Y6R potency relative to UDP 1 (human P2Y6R): 19 fold

SMILES: O=c1ccn([C@@H]2O[C@H](COP(=O)(O)CP(=O)(O)O)[C@@H](O)[C@H]2O)c(=S)[nH]1 [Compound 14b, 2-thiouridine-5′-O-(α,β-methylene)diphosphate, reference compound]
- off-target activities (significant = >50% binding inhibition at 10 μM) [1]: no significant
- CD73 % inhibition at 1 μM (rat CD73; 1 μM): 7%

SMILES: CCN(CC)CC.CCN(CC)CC.O=c1[nH]c(=O)n([C@@H]2O[C@H](COP(=O)(O)CP(=O)(O)O)[C@@H](O)[C@H]2O)cc1F [Compound 16, 5-Fluoro-5′-αβ-methylene-UDP]
- selectivity between P2Y6R and P2Y14R (in words) (hP2Y14R): nonselective
- IC50 (rat CD73; read-out: CD73 IC50): > 1000 nM

SMILES: O=c1[nH]/c(=N\OCc2ccc(S(F)(F)(F)(F)F)cc2)ccn1[C@@H]1O[C@H](COP(=O)(O)CP(=O)(O)O)[C@@H](O)[C@H]1O [Compound 27]
- EC50 (human P2Y6R): 1690 nM

SMILES: CCN(CC)CC.CCN(CC)CC.O=C(/N=c1/ccn([C@@H]2O[C@H](COP(=O)(O)CP(=O)(O)O)[C@@H](O)[C@H]2O)c(=O)[nH]1)c1ccccc1 [Compound 30]
- selectivity between P2Y6R and P2Y14R (in words) (hP2Y14R): nonselective

SMILES: CCN(CC)CC.CCN(CC)CC.Cn1c(=O)n([C@@H]2O[C@H](COP(=O)(O)CP(=O)(O)O)[C@@H](O)[C@H]2O)cc/c1=N/OCc1ccccc1 [Compound 37]
- P2Y6R activation (in words) (human P2Y6R): completely prevent P2Y6R activation; also recorded: prevented P2Y6R activation

SMILES: CCN(CC)CC.CCN(CC)CC.CCn1c(=O)n([C@@H]2O[C@H](COP(=O)(O)CP(=O)(O)O)[C@@H](O)[C@H]2O)cc/c1=N/OCc1ccccc1 [Compound 38]
- P2Y6R activation (in words) (human P2Y6R): completely prevent P2Y6R activation; also recorded: prevented P2Y6R activation

SMILES: O=c1ccn([C@@H]2O[C@H](COP(=O)(O)CP(=O)(O)O)[C@@H](O)[C@@H]2O)c(=O)[nH]1 [Compound 39]
- P2Y6R activation (in words) (human P2Y6R): completely prevent P2Y6R activation; also recorded: prevented P2Y6R activation

SMILES: O=c1cnn([C@@H]2O[C@H](COP(=O)(O)CP(=O)(O)O)[C@@H](O)[C@H]2O)c(=O)[nH]1 [Compound 40]
- P2Y6R activation (in words) (human P2Y6R): completely prevent P2Y6R activation; also recorded: prevented P2Y6R activation

SMILES: O=c1ccn([C@@H]2O[C@H](COP(=O)(O)O)[C@@H](O)[C@H]2O)c(=O)[nH]1 [UMP]
- activation of hP2YRs (in words) (hP2YR): does not activate any hP2YR

SMILES: O=c1ccn([C@@H]2O[C@H](COP(=O)(O)OP(=O)(O)OP(=O)(O)O)[C@@H](O)[C@H]2O)c(=O)[nH]1 [UTP]
- EC50 (hP2Y6R): > 10000 nM
- P2Y14R activity (in words) (P2Y14R): inactive
